Laboratory results from US12291548B2, “Compounds, compositions, and methods for the treatment of disease” (priority 2018, dated 2025).

Assays:
mouse STING = biological target: T1, mouse STING (Mus musculus, UniProt Q3TBT3); test: RAW macrophage ISRE-inducible Lucia reporter assay; type: cell-based; details: mouse derived RAW macrophages, 20 h incubation, QUANTI-luc, vs DMSO-treated sample
T1 construct: Mouse derived RAW macrophages stably transfected with an ISRE-inducible Lucia; endogenous in cells; host or cells: Mouse derived RAW macrophages stably transfected with an ISRE-inducible Lucia reporter
T1 sequence (Q3TBT3 1-378): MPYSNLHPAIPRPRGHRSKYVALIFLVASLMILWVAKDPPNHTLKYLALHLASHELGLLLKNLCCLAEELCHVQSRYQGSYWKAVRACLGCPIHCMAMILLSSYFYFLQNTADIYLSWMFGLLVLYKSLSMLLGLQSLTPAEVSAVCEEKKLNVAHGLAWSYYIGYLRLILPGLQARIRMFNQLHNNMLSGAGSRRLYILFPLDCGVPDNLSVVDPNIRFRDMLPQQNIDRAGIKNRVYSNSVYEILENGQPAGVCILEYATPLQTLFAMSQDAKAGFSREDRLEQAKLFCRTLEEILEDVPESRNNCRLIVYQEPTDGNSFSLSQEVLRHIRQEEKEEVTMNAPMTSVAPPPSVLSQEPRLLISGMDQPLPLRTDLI
Protocol: (§1) Mouse derived RAW macrophages stably transfected with an ISRE-inducible Lucia were treated with various concentrations of compound 1 or DMSO control. After 20 h incubation, levels of Lucia were measured using QUANTI-luc to measure and ISRE reporter activity. Percent induction was calculated from fold change in activity compared to DMSO-treated sample.
as §1, with “sample. EC50 values were generated by curve fit in Xlfit.” for “sample.”
as §1, with “2” for “1”
Mouse derived RAW macrophages stably transfected with an ISRE-inducible Lucia were treated with various concentrations of compound 2 or DMSO control. After 20 h incubation, levels of Lucia were measured using QUANTI-luc to measure and ISRE reporter activity. […]

[1] = biological target: T2, HAQ isoform human STING (hSTING) (Homo sapiens, UniProt Q86WV6, G230A/H232R/R293Q/R71H); test: THP1 dual reporter assay (ISRE-inducible Lucia, NF-κB inducible SEAP); type: cell-based; details: THP1 cells naturally expressing HAQ hSTING, 20 h incubation, vs DMSO-treated sample; for ISRE (IRF) reporter activity, induction: QUANTI-luc
T2 construct: THP1 cells naturally expressing HAQ isoform human STING (hSTING); endogenous in cells; host or cells: THP1 cells stably transfected with ISRE-inducible Lucia and NF-κB inducible SEAP reporters
Protocol: (§2) THP1 cells naturally expressing HAQ isoform human STING (hSTING), stably transfected with an ISRE-inducible Lucia and NF-κB inducible SEAP were treated with various concentrations of Cmd 1 or DMSO control. After 20 h incubation, levels of Lucia and SEAP were measured using QUANTI-luc and QUANTI-Blue to measure and ISRE and NF-κB reporter activity respectively. Percent induction was calculated from fold change in activity compared to DMSO-treated sample.
as §2, with “sample. EC50 values were generated by curve fit in Xlfit.” for “sample.”
as §2, with “Cmd 2” for “Cmd 1”, “reporter activity, respectively, in Xlfit.” for “reporter activity respectively.”
as §2, with “Cmd 2” for “Cmd 1”, “reporter activity, respectively, in Xlfit.” for “reporter activity respectively.”, “sample. EC50 values were generated by curve fit.” for “sample.”

STING CTD = STING CTD (Homo sapiens, UniProt Q86WV6); test: Thermal shift assay with STING CTD; type: binding; details: 0.1 mg/mL STING CTD, compound 2 mM to 0.05 uM, SYPRO Orange, 25-80° C.
Protocol: Thermal shift assay was conducted with 0.1 mg/mL of STING CTD with various dilutions of compound 1 from 2 mM to 0.05 uM in 10 mM HEPES (pH 7.5), 140 mM NaCl and a 5 fold dilution of SYPRO Orange dye (Invitrogen). The fluorescence signal as a function of temperature was recorded using a Real Time PCR machine (Thermo Fisher). The temperature gradient was performed in the range of 25−80° C. with a ramp of 0.2° C. over the course of 60 min. Data were analyzed with the Thermal Shift Software (Thermo Fisher), DSF analysis, and the Derivative model was used to fit the fluorescence data to obtain the midpoint temperature for the thermal protein unfolding transition (Tm) using the curve-fitting software Prism.

T2 sequence (Q86WV6 whole entry R71H/G230A/H232R/R293Q, canonical isoform): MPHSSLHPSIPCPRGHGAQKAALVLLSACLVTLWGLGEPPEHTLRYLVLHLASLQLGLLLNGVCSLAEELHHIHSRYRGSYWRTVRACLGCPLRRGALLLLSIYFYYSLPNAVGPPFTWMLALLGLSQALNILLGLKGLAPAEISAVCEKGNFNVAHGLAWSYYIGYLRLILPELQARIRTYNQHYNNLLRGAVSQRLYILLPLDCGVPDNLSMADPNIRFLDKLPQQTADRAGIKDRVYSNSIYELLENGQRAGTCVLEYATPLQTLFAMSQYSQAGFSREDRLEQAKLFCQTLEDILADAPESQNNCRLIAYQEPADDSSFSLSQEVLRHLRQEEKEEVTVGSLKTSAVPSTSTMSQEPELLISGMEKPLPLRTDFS
Chain of STING CTD (Q86WV6 135-379 limits assumed): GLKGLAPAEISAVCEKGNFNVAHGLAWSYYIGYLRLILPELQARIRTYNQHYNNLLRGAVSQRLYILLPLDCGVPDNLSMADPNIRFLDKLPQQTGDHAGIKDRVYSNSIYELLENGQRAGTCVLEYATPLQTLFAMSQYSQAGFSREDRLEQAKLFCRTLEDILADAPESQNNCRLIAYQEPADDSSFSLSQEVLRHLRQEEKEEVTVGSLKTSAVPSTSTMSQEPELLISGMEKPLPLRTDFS

Row | Compound | ISRE (IRF) reporter activity, induction (mouse STING) | ISRE (IRF) reporter activity, induction [1] | Binding to STING (thermal shift, Tm) (STING CTD) | NF-κB reporter activity, induction ([1]; QUANTI-Blue (SEAP))
1 | Nc1ncnc2c1ncn2[C@@H]1O[C@@H]2COP(=O)(S)O[C@@H]3[C@H](F)[C@@H](COP(=O)(O)O[C@@H]1[C@@H]2F)O[C@H]3n1ccc(=O)[nH]c1=O (stereo partly drawn) [compound 1] | activates mouse STING to induce IRF in RAW macrophages | activates natural allelic variant HAQ to induce IRF | binds to STING with high affinity | –
2 | CCCCCCCCCCOc1ccc(C(=O)Oc2ccc(CSP3(=O)OC[C@H]4O[C@@H](n5cnc6c(N)ncnc65)[C@H](OP(=O)(O)OC[C@H]5O[C@@H](n6ccc(=O)[nH]c6=O)[C@H](O3)[C@@H]5F)[C@@H]4F)cc2)cc1 (stereo partly drawn) [compound 2] | activates mouse STING to induce IRF in RAW macrophages | activates natural allelic variant HAQ to induce IRF | – | activates natural allelic variant HAQ to induce IRF and NF-κB
